# From article PMC11191095, “QSAR Reveals Decreased Lipophilicity of Polar Residues Determines the Selectivity of Antimicrobial Peptide Activity” (ACS Omega, 2024)
# Where a SMILES comes first, the peptide text is derived from it.
# Tests used:
# C. albicans NCPF 3281 = experiment: microbe, parasite or virus in culture; type: cell-based; details: NCPF 3281, 20 h
# How it was run: (§1)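 Peptides 128→2 μg/mL, 2-fold series; inoculum ~5 × 10^5 CFU/mL from overnight culture (OD600 0.01, mixed 1:1). MHB non-cation-adjusted for bacteria, RPMI 1640 + 2% glucose for fungi. 37 °C, 20 h, OD600. MIC50/MIC90 at 50%/90% inhibition; n ≥ 3.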
# C. glabrata NCPF 8018 = experiment: microbe, parasite or virus in culture; type: cell-based; details: NCPF 8018, 20 h
# How it was run: as §1
# C. krusei NCPF 3876 = experiment: microbe, parasite or virus in culture; type: cell-based; details: NCPF 3876, 20 h
# How it was run: as §1
# [1] = test system: C. parapsilosis NCPF 3209; experiment: microbe, parasite or virus in culture; type: cell-based; details: NCPF 3209, 20 h
# How it was run: as §1
# C. tropicalis NCPF 8760 = experiment: microbe, parasite or virus in culture; type: cell-based; details: NCPF 8760, 20 h
# How it was run: as §1
# [2] = RP-HPLC ElutionTime as indicator of hydrophobicity; type: physicochemical; details: indicator of overall hydrophobicity; semipreparative RP-HPLC, Waters SymmetryPrep C8, water/ACN gradient with 0.1% TFA, 8 mL/min, 25 °C, 254 nm
# Experimental: Crude peptides, made up to 10 mg/mL in 0.1% TFA (v/v) in ddH2O, were subjected to preparative RP-HPLC purification on an Agilent 1100 system, with elution in gradient. A gradient program at a flow rate of 8 mL/min and column temperature of 25 °C was used to achieve elution with solvent A (0.1% trifluoroacetic acid (TFA) in water (v/v)) and solvent B (0.1% TFA in 100% acetonitrile (ACN) (v/v)). The elution program was as follows: (1) At 0–73 min, 100% solvent A to 0% solvent B; (2) at 73–77 min, 40% solvent A to 60% solvent B; (3) at 77–93 min, 10% solvent A to 90% solvent B; (4) at 93–105 min, 100% solvent A to 0% solvent B. Data collected were the retention time of the major fraction for each peptide in minutes as RP-HPLC ElutionTime (ElutionTime). Absorbance was detected at 254 nm, and fractions were collected manually. The fractions collected were spun in a speed-vac to remove ACN and the contents lyophilized. After freeze-drying for 24 h the peptides were dissolved in 10% (v/v) acetic acid before being lyophilized for a second time and then stored at −20 °C.
# Molecular descriptors used in the QSAR analysis included: charge, sequence length, overall lipophilicity (L), lipophilicity contributed by the polar or nonpolar residues (LP and LN), summation of the side chain surface areas of the total peptide, polar or nonpolar residues (SCSA, SCSAP, and SCSAN), the molecular weight of the entire peptide, polar or nonpolar residues (Mw, MwP, and MwN), count of small lipophilic residues (CSL) or aromatic residues (CAR), the total number of hydrogen bond donor and acceptor centers (HBtot, HBdon, and HBacc), the total number of rotatable bonds (#RotBonds) and various amphipathicity descriptors (LP/L, LP/LN, L/LN, Q/L, Q/LN, SCSAP/SCSAN, MwP/MwN, Q/CSL, and Q/CAR) (Suppl. Table S1). Experimentally determined characteristics included ElutionTime as an indicator of overall peptide hydrophobicity and the CD structure of each peptide determined in POPG/POPE lipids representing Gram-negative membranes, POPG lipids for Gram-positive membranes, and SDS micelles for fungal membranes. AMPs with an α-helical structure were labeled 4, β-sheets were labeled 3, β-turns and mixed conformations were labeled 2, and disordered structures were labeled 1.
# [3] = test system: eight Gram-negative, four Gram-positive bacteria, and six fungi; experiment: Antimicrobial screening against panel of 18 pathogens; type: cell-based; details: 128 to 2 μg/mL, 37 °C, 20 h
# Experimental: Antimicrobial activity was evaluated against a panel of 18 pathogens consisting of eight Gram-negative strains (E. coli NCTC 12923, E. coli LEC001, Pseudomonas aeruginosa PAO1, P. aeruginosa NCTC 13437, Acinetobacter baumannii ATCC 17978, A. baumannii AYE, Klebsiella pneumoniae M6, K. pneumoniae NCTC 13368), four Gram-positive strains (Staphylococcus aureus ATCC 9144, S. aureus NCTC 13616, S. aureus USA300, S. aureus 1199B) and six fungi (Candida auris TDG 1912, C. albicans NCPF 8018, C. krusei NCPF 3876, C. tropicalis NCPF 8760, and C. parapsilosis NCPF 3209). Pathogens were grown in noncation adjusted Mueller Hinton broth (MHB, for bacteria) or Roswell Park Memorial Institute (RPMI 1640) + 2% glucose (for fungi) at 37 °C with 180 rpm shaking and maintained on solid media (tryptic soy agar for bacteria and Sabouraud dextrose agar for fungi). For an antibiogram, see Suppl.
# The 46 peptides were serially diluted (128 to 2 μg/mL) in media down polypropylene 96-well plates. […] Plates were incubated at 37 °C for 20 h, and the optical density was determined spectrophotometrically at 600 nm. Minimum inhibition concentrations (MICs) were determined from a minimum of three biological repeats and are reported in μg/mL as well as μM. […]
Structure (SMILES),Modal MIC50 (C. albicans NCPF 3281),Modal MIC90 (C. albicans NCPF 3281),Modal MIC50 (C. glabrata NCPF 8018),Modal MIC90 (C. glabrata NCPF 8018),Modal MIC50 (C. krusei NCPF 3876),Modal MIC90 (C. krusei NCPF 3876),Modal MIC50 [1],Modal MIC90 [1],Modal MIC50 (C. tropicalis NCPF 8760),Modal MIC90 (C. tropicalis NCPF 8760),ElutionTime (RP-HPLC retention time of major fraction) [2],antimicrobial activity in the screens [3]
CC(C)[C@H](NC(=O)[C@H](CS)NC(=O)[C@@H](N)CCCNC(=N)N)C(=O)N[C@@H](CS)C(=O)N[C@H](C(=O)N[C@@H](CCCNC(=N)N)C(=O)NCC(=O)N[C@@H](Cc1ccccc1)C(=O)N[C@@H](CS)C(=O)O)[C@@H](C)O [ThetaDefA] (H-RCVCTRGFC-OH; N-terminus and C-terminus assumed),> 122.6 µM,> 122.6 µM,> 122.6 µM,> 122.6 µM,> 122.6 µM,> 122.6 µM,> 122.6 µM,> 122.6 µM,> 122.6 µM,> 122.6 µM,22 min,no activity
CC(C)[C@H](NC(=O)CNC(=O)[C@H](CCCNC(=N)N)NC(=O)[C@H](CCCNC(=N)N)NC(=O)[C@H](CS)NC(=O)[C@@H](NC(=O)[C@H](CS)NC(=O)[C@@H](N)CCCNC(=N)N)C(C)C)C(=O)N[C@@H](CS)C(=O)O [ThetaDefB] (H-RCVCRRGVC-OH; N-terminus and C-terminus assumed),> 116.4 µM,> 116.4 µM,> 116.4 µM,> 116.4 µM,> 116.4 µM,> 116.4 µM,> 116.4 µM,> 116.4 µM,> 116.4 µM,> 116.4 µM,20 min,no activity
